Consider 6 compounds from patent US20250326769A1, “HETEROAROMATIC MACROCYCLIC ETHER CHEMOTHERAPEUTIC AGENTS” (Nuvalent, Inc., priority 2022, published 2025).

Common to all, as to format: cell-based
The target in experiment [1] is Ba/F3 EML4-ALK v1 I1171N (Homo sapiens (Human), UniProt Q9HC35+Q9UM73, I1171N). The experiment in a line: Ba/F3 cell proliferation assay, EML4-ALK v1 I1171N. As to conditions: for IC50: Ba/F3 stable cells, 72 hours, CellTiter-Glo; for ETV6-TRKB / EML4-ALK v1 I1171N: TRKB selectivity, ratio of Ba/F3 IC50 values. The text has this: Genes encoding EML4-ALK v1 (variant 1), EML4-ALK v1 G1202R, EML4-ALK v1 I1171IN, EML4-ALK v1 D1203N, EML4-ALK v1 I1171N/D1203N, and ETV6-TRKB were synthesized at GeneRay, cloned into the retroviral construct pMSCV-puro (Biovector), and packaged into retroviral particles. The virus was used to infect Ba/F3 cells (RIKEN) at multiplicity of infection=1 for 1 day. Infected cells were rescued in media (RPMI-1640 with 10% fetal bovine serum and 1% streptomycin and penicillin) supplemented with mouse IL-3 (10 ng/mL) for 2 days, and stable cell lines were selected by IL-3 withdrawal and puromycin (0.8 μg/mL) for 7 days. Monoclones were selected by single-cell dilution in IL-3-free medium containing puromycin (0.8 μg/mL). Transformation of desired genes was confirmed by Sanger sequencing and western blot using the following antibodies: ALK (CST #3633) and pan-TRK (Abcam #76291).
Stable cells were plated in a 384-well plate. Test compounds were then added in a 3-fold dilution series and incubated for 72 hours. CellTiter-Glo reagent (Promega) was added. Luminescence was measured on a plate reader. Half-maximal inhibitory concentration (ICso) was calculated from percent inhibition and inhibitor concentration using four-parameter logistic regression. Compound potency can be interpreted by binning IC50 values: bin A for high potency, 0.1 nM IC50<50 nM; bin B for medium potency, 50 nM<IC50<500 nM; and bin C for low potency, IC50>500 nM. […] Exemplary data is given in Table 4 (nd is not determined).
Ba/F3 proliferation is driven by the transduced oncogenes in the same way that cancer cell proliferation in humans is driven by the expression of equivalent oncogenes.
TRKB selectivity was calculated by dividing a compound's TRKB potency by its primary target potency (e.g., ETV6-TRKB IC50/EML4-ALK v1 IC50). Compound selectivity can be interpreted by binning ratio values: bin A for very high selectivity, ratio≥30-fold; bin B for high selectivity, ratio≥10-fold but<30; bin C for moderate selectivity, ratio≥1 but<10; and bin D for low selectivity, ratio<1. […] (nd=not determined).
(In general: ATP-based viability assays read luminescence as a measure of living cells.)

Experiment [2] addresses Ba/F3 ETV6-TRKB (Homo sapiens, UniProt Q16620). The experiment in a line: Ba/F3 cell proliferation assay, ETV6-TRKB. The settings on record: Ba/F3 stable cells, 72 hours, CellTiter-Glo; read-out: ETV6-TRKB IC50. The method, boiled down: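 Growth inhibition after 72 h compound exposure (3-fold series) was measured by CellTiter-Glo in IL-3-independent Ba/F3 cells stably expressing ETV6-TRKB. A four-parameter logistic fit of percent inhibition versus concentration gave IC50.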

The target of experiment [3] is Ba/F3 EML4-ALK v1 I1171N/D1203N (Homo sapiens (Human), UniProt Q9HC35+Q9UM73, D1203N/I1171N). As to the kind of experiment: Ba/F3 cell proliferation assay, EML4-ALK v1 I1171N/D1203N. The settings on record: for IC50: Ba/F3 stable cells, 72 hours, CellTiter-Glo; for ETV6-TRKB / EML4-ALK v1 I1171N/D1203N: TRKB selectivity, ratio of Ba/F3 IC50 values. The method, boiled down: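 Viability read by CellTiter-Glo luminescence after 72 h exposure to a 3-fold compound dilution series, with IC50 from four-parameter logistic regression. Cells were Ba/F3 rendered IL-3-independent through retroviral expression of EML4-ALK v1 I1171N/D1203N, puromycin-selected.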

A value given as a limit tells only on which side of the number the result lay.

Chain of Ba/F3 ETV6-TRKB (Q16620 32-822 limits assumed, change not shown): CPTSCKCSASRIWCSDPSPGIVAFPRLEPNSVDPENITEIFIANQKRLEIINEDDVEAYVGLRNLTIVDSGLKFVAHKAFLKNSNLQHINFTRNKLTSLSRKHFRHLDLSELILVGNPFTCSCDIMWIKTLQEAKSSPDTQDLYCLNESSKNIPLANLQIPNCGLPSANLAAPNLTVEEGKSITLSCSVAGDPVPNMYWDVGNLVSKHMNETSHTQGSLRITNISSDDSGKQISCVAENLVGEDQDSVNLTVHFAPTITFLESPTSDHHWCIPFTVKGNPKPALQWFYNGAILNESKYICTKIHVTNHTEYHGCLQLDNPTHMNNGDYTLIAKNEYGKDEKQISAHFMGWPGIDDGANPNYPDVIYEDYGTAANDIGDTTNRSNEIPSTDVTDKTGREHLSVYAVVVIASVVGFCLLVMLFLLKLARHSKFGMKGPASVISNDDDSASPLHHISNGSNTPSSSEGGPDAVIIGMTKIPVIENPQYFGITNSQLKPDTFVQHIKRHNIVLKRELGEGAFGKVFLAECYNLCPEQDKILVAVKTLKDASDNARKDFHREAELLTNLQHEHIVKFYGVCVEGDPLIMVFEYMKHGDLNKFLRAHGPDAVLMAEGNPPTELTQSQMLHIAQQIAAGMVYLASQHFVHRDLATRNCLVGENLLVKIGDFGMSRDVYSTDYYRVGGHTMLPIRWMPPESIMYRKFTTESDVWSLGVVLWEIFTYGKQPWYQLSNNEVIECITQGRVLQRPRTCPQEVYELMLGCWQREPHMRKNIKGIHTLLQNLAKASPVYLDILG
Chain of Ba/F3 EML4-ALK v1 I1171N/D1203N (Q9UM73 other isoform, or with tags, fused parts or gaps I1171N/D1203N): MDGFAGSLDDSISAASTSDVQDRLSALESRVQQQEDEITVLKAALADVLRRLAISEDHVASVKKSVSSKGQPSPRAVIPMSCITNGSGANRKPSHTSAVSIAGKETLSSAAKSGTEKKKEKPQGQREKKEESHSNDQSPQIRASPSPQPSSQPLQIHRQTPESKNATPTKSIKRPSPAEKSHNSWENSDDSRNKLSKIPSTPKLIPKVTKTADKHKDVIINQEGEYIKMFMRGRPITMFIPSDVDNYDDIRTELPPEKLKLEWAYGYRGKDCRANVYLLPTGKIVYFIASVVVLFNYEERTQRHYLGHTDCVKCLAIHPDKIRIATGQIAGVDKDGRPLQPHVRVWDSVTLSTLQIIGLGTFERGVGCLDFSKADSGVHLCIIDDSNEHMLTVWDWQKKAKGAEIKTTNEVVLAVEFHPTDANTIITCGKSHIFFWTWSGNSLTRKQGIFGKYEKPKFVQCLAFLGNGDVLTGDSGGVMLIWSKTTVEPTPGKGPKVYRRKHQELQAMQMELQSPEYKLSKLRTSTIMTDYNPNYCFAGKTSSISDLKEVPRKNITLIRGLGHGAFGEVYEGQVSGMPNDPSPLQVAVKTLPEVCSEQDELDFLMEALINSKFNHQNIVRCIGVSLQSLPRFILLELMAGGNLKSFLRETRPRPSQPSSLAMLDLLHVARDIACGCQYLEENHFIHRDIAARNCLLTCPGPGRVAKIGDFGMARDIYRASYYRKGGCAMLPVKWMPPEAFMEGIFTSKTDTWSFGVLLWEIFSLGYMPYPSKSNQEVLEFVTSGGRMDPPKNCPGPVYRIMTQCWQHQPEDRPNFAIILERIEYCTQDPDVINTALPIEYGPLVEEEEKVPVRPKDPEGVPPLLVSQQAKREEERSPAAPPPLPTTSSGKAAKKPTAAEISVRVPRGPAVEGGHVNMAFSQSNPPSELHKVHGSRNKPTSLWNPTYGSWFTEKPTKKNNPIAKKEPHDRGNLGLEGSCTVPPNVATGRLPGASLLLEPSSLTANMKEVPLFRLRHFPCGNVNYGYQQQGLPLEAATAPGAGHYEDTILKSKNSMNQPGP
Chain of Ba/F3 EML4-ALK v1 I1171N (Q9UM73 other isoform, or with tags, fused parts or gaps I1171N): as the sequence (Q9UM73 other isoform, or with tags, fused parts or gaps I1171N/D1203N) above, with N642D counted along it

Turning to `CCc1c2c(nn1C)C(=O)c1cccnc1-c1ccc(F)cc1[C@@H](C)Oc1cc-2cnc1N` [Example 54, (R)-23-amino-3-ethyl-17-fluoro-4-methyl-20-methyl-21-oxa-4,5,12,24-tetraazapentacyclo[20.3.1.0^2,^6.0^8,^13.0^14,^19]hexacosa-1(25),2,5,8,10,12,14,16,18,22(26),23-undecaen-7-one], the concentration for half-maximal inhibition (IC50) in experiment [1], in experiment [2] and in experiment [3] was 0.0001 to 0.05 µM in each case. Besides, in experiment [1], the “ETV6-TRKB / EML4-ALK v1 I1171N” value is listed as “C (bin C for moderate selectivity, ratio≥1 but<10)”. In experiment [3], the “ETV6-TRKB / EML4-ALK v1 I1171N/D1203N” value is given as “B (bin B for high selectivity, ratio≥10-fold but<30)”.
Turning to `C[C@H]1Oc2cc(cnc2N)-c2c(C3CCC3)nn(C(=O)N(C)C)c2Cc2cccnc2-c2ccc(F)cc21` [Example 57, (R)-5-(N,N-dimethylcarbamoyl)-3-cyclobutyl-17-fluoro-20-methyl-21-oxa-4,5,12,24-tetraazapentacyclo[20.3.1.0^2,^6.0^8,^13.0^14,^19]hexacosa-1(25),2(6),3,8(13),9,11,14,16,18,22(26),23-undecaen-23-ylamine], the values for the half-maximal inhibitory concentration (IC50) in experiment [1], in experiment [2] and in experiment [3] were 0.0001 to 0.05 µM, 0.05 to 0.5 µM and 0.0001 to 0.05 µM, respectively.
For the compound `C[C@H]1Oc2cc(cnc2N)-c2c(C#N)nn(C(=O)N(C)C)c2Cc2cccnc2-c2c(F)cc(F)cc21` [Example 71, N,N-dimethyl-(R)-23-amino-3-cyano-15,17-difluoro-20-methyl-21-oxa-4,5,12,24-tetraazapentacyclo[20.3.1.0^2,^6.0^8,^13.0^14,^19]hexacosa-1(25),2(6),3,8(13),9,11,14,16,18,22(26),23-undecaene-5-carboxamide], in experiment [1], the IC50 (commonly the midpoint of a concentration-inhibition curve) lay in the range of 0.05 to 0.5 µM and the “ETV6-TRKB / EML4-ALK v1 I1171N” value is reported as “B (bin B for high selectivity, ratio≥10-fold but<30)”. Also, the IC50 in experiment [2] was greater than 0.5 µM. In experiment [3], the IC50 is 0.05 to 0.5 µM and the “ETV6-TRKB / EML4-ALK v1 I1171N/D1203N” value is given as “B (bin B for high selectivity, ratio≥10-fold but<30)”.
Regarding `Cc1ccc2c(n1)-c1ccc(F)cc1[C@@H](C)Oc1cc(cnc1N)-c1c(C#N)nn(C(=O)N(C)C)c1C2` [Example 72, N,N-dimethyl-(R)-23-amino-3-cyano-17-fluoro-11,20-dimethyl-21-oxa-4,5,12,24-tetraazapentacyclo[20.3.1.0^2,^6.0^8,^13.0^14,^19]hexacosa-1(25),2(6),3,8(13),9,11,14,16,18,22(26),23-undecaene-5-carboxamide], the figures for the IC50 in experiment [1], in experiment [2] and in experiment [3] were 0.05 to 0.5 µM, greater than 0.5 µM and 0.05 to 0.5 µM, respectively. Further, the “ETV6-TRKB / EML4-ALK v1 I1171N” value in experiment [1] is given as “A (bin A for very high selectivity, ratio≥30-fold)”. Also, the “ETV6-TRKB / EML4-ALK v1 I1171N/D1203N” value in experiment [3] is given as “B (bin B for high selectivity, ratio≥10-fold but<30)”.
Take `Cc1nc2c(s1)C(=O)c1nn(C)c(C#N)c1-c1cnc(N)c(c1)O[C@H](C)c1cc(F)ccc1-2` [Example 73, (R)-22-amino-16-fluoro-4-methyl-10,19-dimethyl-7-oxo-20-oxa-9-thia-4,5,11,23-tetraazapentacyclo[19.3.1.0^2,^6.0^8,^12.0^13,^18]pentacosa-1(24),2,5,8(12),10,13,15,17,21(25),22-decaene-3-carbonitrile]: the results for the IC50 in experiment [1], in experiment [2] and in experiment [3] were 0.0001 to 0.05 µM, 0.05 to 0.5 µM and 0.0001 to 0.05 µM, respectively.
In the case of `C[C@H]1Oc2cc(cnc2N)-c2c(n[nH]c2C#N)C(=O)c2cccnc2-c2c(F)cc(F)cc21` [Example 77, (R)-23-amino-15,17-difluoro-20-methyl-7-oxo-21-oxa-4,5,12,24-NH2 tetraazapentacyclo[20.3.1.0^2,6.0^8,13.0^14,19]hexacosa-1(25),2,5,8,10,12,14,16,18,22(26),23-undecaene-3-carbonitrile], in experiment [1], the half-inhibitory concentration (IC50) was 0.0001 to 0.05 µM and the “ETV6-TRKB / EML4-ALK v1 I1171N” value was “B (bin B for high selectivity, ratio≥10-fold but<30)”. In addition, the concentration for half-maximal inhibition (IC50) in experiment [2] fell in the range of 0.05 to 0.5 µM. In experiment [3], the IC50 lay within 0.0001 to 0.05 µM and the “ETV6-TRKB / EML4-ALK v1 I1171N/D1203N” value is given as “A (bin A for very high selectivity, ratio≥30-fold)”.
